According to PubChem BioAssay (NCI):
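Five compound concentrations were applied to cells in 96-well plates for 48 hours; endpoints were derived by simple linear interpolation of the resulting dose-response curve. Abbreviation: GI50, concentration required for 50% inhibition of growth. At the TGI there is no net growth.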

How the values were obtained:
Assay in all cases: NCI tumour cell line growth inhibition, 48 h
TK-10 renal = tested on: TK-10 renal
OVCAR-3 ovarian = tested on: OVCAR-3 ovarian
SF-295 CNS = tested on: SF-295 CNS
T-47D breast = tested on: T-47D breast
HCT-116 colon = tested on: HCT-116 colon
ACHN renal = tested on: ACHN renal
K-562 leukemia = tested on: K-562 leukemia
SNB-19 CNS = tested on: SNB-19 CNS
MALME-3M melanoma = tested on: MALME-3M melanoma
MOLT-4 leukemia = tested on: MOLT-4 leukemia

| SMILES | GI50 (TK-10 renal) | TGI (TK-10 renal) | GI50 (OVCAR-3 ovarian) | TGI (OVCAR-3 ovarian) | GI50 (SF-295 CNS) | TGI (SF-295 CNS) | GI50 (T-47D breast) | TGI (T-47D breast) | GI50 (HCT-116 colon) | TGI (HCT-116 colon) | GI50 (ACHN renal) | TGI (ACHN renal) | GI50 (K-562 leukemia) | TGI (K-562 leukemia) | GI50 (SNB-19 CNS) | TGI (SNB-19 CNS) | GI50 (MALME-3M melanoma) | TGI (MALME-3M melanoma) | GI50 (MOLT-4 leukemia) | TGI (MOLT-4 leukemia) |
| --- | --- | --- | --- | --- | --- | --- | --- | --- | --- | --- | --- | --- | --- | --- | --- | --- | --- | --- | --- | --- |
| CC(=O)n1c(-c2ccc(Cl)c(Cl)c2)cn(-c2ccc(Cl)cc2)c1=O | 18.7 µM | 38 µM | 51.2 µM | > 100 µM | 11.9 µM | 28.8 µM | 19.3 µM | 49.5 µM | 19.6 µM | > 100 µM | 27.8 µM | > 100 µM | 24.1 µM | 80.5 µM | 13.4 µM | 40.7 µM | 32 µM | > 100 µM | 23.3 µM | 90.2 µM |
| O=c1[nH]nc(-c2ccccc2)c2c(-c3ccccc3)onc12 | 0.999 µM | > 100 µM | 0.358 µM | 1.44 µM | 0.72 µM | > 100 µM | 0.595 µM | > 46 µM | 0.333 µM | > 100 µM | 3.38 µM | > 100 µM | 0.385 µM | > 100 µM | 11.2 µM | > 100 µM | 0.751 µM | > 90 µM | 0.564 µM | > 65.3 µM |
| CCc1nc(N)nc(N)c1C#CC(C)c1cc(-c2ccnc(C)c2)c2oc(C)nc2c1 (stereo not given) | 0.126 µM | 12 µM | 0.0893 µM | 15 µM | < 0.01 µM | 6.39 µM | 0.283 µM | 8.5 µM | < 0.01 µM | 10.9 µM | < 0.01 µM | 11 µM | < 0.01 µM | 31.3 µM | < 0.0114 µM | 12.1 µM | 2.11 µM | 14.4 µM | < 0.01 µM | 8.81 µM |
| C=C(C)C(=O)O[C@H]1CC2=CC(CC(C)=C[C@H]3OC(=O)C(=C)C13)OC2=O (stereo not given in full) |  | 22.6 µM |  | 70.5 µM |  | > 100 µM |  | 36.9 µM |  | 24.2 µM |  | 27.6 µM |  | 22.5 µM |  | > 100 µM |  | 40.7 µM |  | 40.7 µM |
| Cc1ccc(-c2c3c(N)c4c(nc3nc3c2c(C)nn3-c2ccccc2)CCC4)cc1 | 2.43 µM | 5.42 µM | 1.96 µM | 3.86 µM | 7.45 µM | 21.9 µM | 2.18 µM | 5.08 µM | 1.57 µM | 3.41 µM | 3.16 µM | 8.38 µM | 2.42 µM | 6.56 µM | 3.85 µM | 18 µM | 18.4 µM | 39.1 µM | 2.81 µM | 7.94 µM |
| Cc1ccccc1NC(=O)c1cc2ccccc2cc1O | 4.2 µM | > 100 µM | 2.56 µM | 7.77 µM | 3.03 µM | 24.2 µM | 3.51 µM | > 100 µM | 3.45 µM | 15.1 µM | 3.17 µM | 10.4 µM | 5.23 µM | > 100 µM | 4.6 µM | > 100 µM | 1.98 µM | 7.29 µM | 3.98 µM | > 100 µM |
| COc1ccc2c(c1)C=C1CSCC3=Cc4cc(OC)ccc4OC13O2 | > 100 µM | > 100 µM | 0.295 µM | 0.884 µM | 0.316 µM | > 100 µM | 0.418 µM | > 100 µM | 0.471 µM | > 100 µM | 0.863 µM | > 100 µM | 0.228 µM | > 100 µM | 0.552 µM | > 100 µM | 0.473 µM | > 100 µM | 0.486 µM | > 100 µM |
| CC(C)=CCc1cc(C2COc3cc4c(c(O)c3C2=O)C=CC(C)(C)O4)c(O)cc1O (stereo not given) |  | 31.7 µM |  | 27.3 µM |  | 43.5 µM |  | 27.2 µM |  | 54.5 µM |  | 32.4 µM |  | 10.7 µM |  | 40.7 µM |  | 28.3 µM |  | 20.7 µM |
| c1ccc(/C(=N\Nc2ccc3ccccc3n2)c2ccccn2)cc1 | 0.372 µM | 5.31 µM | 0.291 µM | 2.49 µM | 0.211 µM | 2.13 µM | 0.315 µM | 26 µM | 0.436 µM | 5.62 µM | 0.49 µM | 8.78 µM | 0.649 µM | 6.52 µM | 1.29 µM | > 59.3 µM | 0.546 µM | 5.76 µM | 0.252 µM | 0.69 µM |
| O=C1COCCN1c1ccc(NCc2cn(C(=O)c3ccc(Cl)cc3)c3ccccc23)cc1 | 0.148 µM | 2.18 µM | 1.21 µM | 12.5 µM | 1.83 µM | 33.5 µM | 0.264 µM | 83.8 µM | 0.247 µM | 19.8 µM | 3.79 µM | 27.5 µM | 1.84 µM | 17 µM | 20.8 µM | > 100 µM | 7.96 µM | 24.9 µM | 5.66 µM | 47.8 µM |
| O=C1NC(SCc2ccc(F)cc2)=N/C1=C/c1cccc(OCc2ccc(Cl)cc2)c1 | 6.07 µM | 87.8 µM | 5.08 µM | 31.5 µM | 4.97 µM | > 100 µM | 13.9 µM | > 100 µM | 3.27 µM | 14.9 µM | 1.93 µM | 3.87 µM | 28.8 µM | > 100 µM | 21.7 µM | > 100 µM | 26.5 µM | > 100 µM | 31.6 µM | > 100 µM |
| CCC(=O)c1c(C(F)(F)F)n([O-])c2ccccc2[n+]1=O | 2.81 µM | 14.5 µM | 1.74 µM | 6.35 µM | 1.59 µM | 7.29 µM | 2.27 µM | 31.1 µM | 1.56 µM | 8.83 µM | 1.09 µM | 3.13 µM | 1.35 µM | 33.3 µM | 5.07 µM | 32.6 µM | 1.69 µM | 6.16 µM | 0.577 µM | > 100 µM |
| Cn1c2ccccc2c2[nH]c3ccccc3c(=O)c21 |  | > 100 µM |  | > 100 µM |  | > 100 µM |  | > 100 µM |  | > 100 µM |  | > 100 µM |  | > 100 µM |  | > 100 µM |  | > 100 µM |  | > 100 µM |
